# Assay results from PMC10653909, “PlzD modifies Vibrio vulnificus foraging behavior and virulence in response to elevated c-di-GMP” (mBio, 2023).
# Target: T1, PlzD
# T1 construct: His-tagged PlzD (aot11_00285, strain ATCC27562), expressed in E. coli BL21(DE3)
# Assay: micro-equilibrium dialysis with UV absorbance at […] nm, purified protein
# Assay type: binding, Vibrio vulnificus
smiles,measurement,value
Nc1nc2c(ncn2[C@@H]2O[C@@H]3COP(=O)(O)O[C@H]4[C@@H](O)[C@H](n5cnc6c(=O)[nH]c(N)nc65)O[C@@H]4COP(=O)(O)O[C@H]3[C@H]2O)c(=O)[nH]1 [c-di-GMP],Kd,3.9 µM
